The results in this text go back to US11220527B2, “Peptides derived from the propeptide NTSR3 and their use in the treatment of depression” (CENTRE NATIONAL DE LA RECHERCHE SCIENTIFIQUE, priority 2016, dated 2022).

In one assay the test system is PSD-95 protein. The experiment in a line: Synaptogenesis: PSD-95 expression in cortical neurons by Western blot. The assay is classed as cell-based, mouse C57BI/6J. As to conditions: 1 μM, 0-36 hours, normalized to ß-actin, FIG. 6. The method, then: Pregnant female C57BI/6J mice (20-25 g, Janvier Labs, St Berthevin, France) were anesthetized by inhalation of 2% isoflurane mixed with 30% oxygen and 70% nitrous oxide, and then sacrificed. The embryos (E14) were removed and the cerebral cortex was dissected in PBS containing 1% glucose. Neurons were prepared from cerebral cortex by mechanical dissociation, as described in Brewer and Torricelli, 2007 [26]. The dissociated neurons were distributed in poly-L-lysine treated plates and cultured for up to 10 days in neurobasal medium containing 2% B27 (Invitrogen, Fisher Scientific, Illkirch, France) and 50 μg/ml gentamycin (Sigma France), at 37° C. under 5% CO2. […]
Cortical neurons treated with peptides G/A-PE(22-28) and biotinylated G/A-PE(22-28) for different durations (0, 5, 8, 24 and 36 hours) were homogenized in Laemmli buffer and analyzed using 10% SDS-Page gels. […] The ß-actin contents were determined after extraction using a 1/5000 dilution of anti-β-actin antibodies (Santa Cruz mouse monoclonal antibody, dilution 1/5000). […] The proteins were detected with ECL Plus detection reagents (Amersham Biosciences) using the LAS-3000 imaging system (Fujifilm, Düsseldorf, Germany). The relative intensities of each labeled band were analyzed by densitometric scanning using ImageJ software (Wayne Rasband, National Institute of Health, Bethesda, Md., USA). […]

A short description of assay [1]: Learned helplessness test (LHT). The assay is classed as in vivo. To be noted: mice, bolus of 100 μL of a 10^-6 M solution 30 minutes before conditioning, FIG. 4. The method, then: Learned resignation or learned helplessness is a model based on the repeated administration of electric shocks to induce a resigned state in the animal.
The apparatus comprises two compartments separated by a sliding door and with a floor consisting of a metal grid through which the electrical pulses are administered. The learned helplessness protocol is divided into two stages, an animal conditioning stage and a test stage.
The conditioning was carried out over a period of four days during which time the mice received 360 non-avoidable electric shocks of 0.3 mA for one hour (the door, separating the two compartments, being closed). The shocks lasted for 2 seconds and an interval of 8 seconds was respected between each shock. This conditioning step leads to a phenomenon of helplessness in animals.
On the day of the test, the mice were placed in the same compartments but with a possibility of escaping the shock. The test counted 30 trials. During the administration of the shock, the door separating the two compartments opened, allowing the animals to flee. When the animal changes compartment the test is finished and the shock stops. […] This test made it possible to record the escape latencies of the animals. The thirty tests were then grouped by 5 and the average escape time was calculated. […]

Assay [2] relates to BrdU-positive cells of the dentate gyrus of the hippocampus. The experiment in a line: Hippocampal neurogenesis by BrdU immunohistochemistry. Type of assay: in vivo. As to conditions: mice, four days of treatment, FIG. 5. As to the method: BrdU (5-bromo-2′-deoxyuridine) is a synthetic nucleoside analogous to thymidine. It is incorporated during DNA replication during phase S (chromosome duplication during interphase) of the cells in division. Injection of BrdU makes it possible to visualize the cells in division of the tissue to be analyzed by means of immunological labeling. In the present study, the hippocampal neurogenesis of the mice was evaluated after treatment with spadin or the different analogs.
After the behavioral tests, the mice were injected with BrdU at a final concentration of 120 mg/kg intraperitoneally, according to the modified protocol of Beauquis, J. et al. (Eur J Neurosci 23, 1539-1546, 2007). Four injections of 300 μl at 10 mg/ml, spaced two hours apart, were performed. 24 hours after the injections, the mice were anesthetized with pentobarbital (100 mg/kg) and then perfused intracardially. During the intracardiac perfusion, physiological saline was administered to remove all blood from the body of the mice, and then 4% paraformaldehyde (PFA) was perfused to fix the organs. Post-fixation in 4% PFA was also performed overnight. The brains of the mice were cut with a vibratome (Leica), which allowed 40 μm floating frontal sections to be obtained. The sections selected for the immunological reaction were those ranging from bregma 3.3 to 5.3. Eight sections were selected with a regular spacing, allowing the entire hippocampus to be covered while remaining homogeneous from one brain to another.
The immunological reaction was performed by incubating an anti-BrdU primary antibody (BD Pharmingen, 1/8000), with the brain sections, overnight at 4° C. The brain sections were then washed in PBS (Phosphate Buffered Saline) and incubated for two hours with the secondary antibody (biotinylated goat anti-mouse antibody, Vector laboratories, 1/400). […]
The sections were then mounted on slides and fixed with Entellan. BrdU-positive cells of the dentate gyrus of the hippocampus were counted in both hemispheres of each brain. […]

Where no end group is shown, it is not given here.

For AVSWGLR [G/A-PE(22-28), AVSWGLR], in the assay with PSD-95 protein, the “PSD-95 synaptic protein expression (synaptogenesis)” value was “increased PSD-95 synaptic protein expression”. The “escape latencies in the learned helplessness test” value in assay [1] is on record as “capable of reducing the escape latencies”. The “neurogenesis (BrdU-positive cells of the hippocampus)” value is listed as “increase neurogenesis more strongly than peptide PE(22-28)” in assay [2] and “capable of inducing an increase in neurogenesis” in assay [2] (listed as G/APE(22-28)).
